Experimental data: patent US20250059074A1, “ANTIMICROBIAL SYSTEM AND METHOD” (KEMIRA OYJ, priority 2021, published 2025)

Tested on: Pseudoxanthomonas taiwanensis biofilm
Test: Biofilm test in 96-microwell plates with peg lids, Crystal Violet quantification
Assay type: cell-based
Settings: for Impact (biofilm reduction percentage vs no added chemicals): 45° C., 150 rpm
Source text: Authentic cooling water was obtained from a cooling water system in Germany. Proteobacteria are commonly found from cooling waters (Water Research 159 (2019): 464-479). In the biofilm-experiments the test water was spiked with Pseudoxanthomonas taiwanensis, a biofilm-forming species belonging to the phylum Proteobacter. Biofilm tests were done in simulated cooling water, SCW (prepared according to Marziya Rizvi et al., Nature Scientific Reports | (2021) 11:8353) using 96-microwell plate wells with peg lids (Thermo Fischer Scientific Inc., USA). Plates were incubated at 45° C. with a rotary shaking (150 rpm) providing high flow in each well. Wells of 96-microwell plates with peg-lids were filled with 10% authentic cooling water, 89% SCW and 1% of pure culture of Pseudoxanthomonas taiwanensis. Biofilm was grown at 45° C. with a rotary shaking (150 rpm) for 24 hours without addition of any chemical compound to be tested. After 24 hours from starting the test, the wells were emptied and a fresh solution comprising 10% authentic cooling water, 89% SCW and 1% of pure culture of Pseudoxanthomonas taiwanensis with different amounts of chemical compounds to be tested were added and the original peg-lid was placed back in place. After an additional 24 hours the wells were emptied and the biofilm amount on the pegs was quantified. The amount of biofilm formed on the peg surfaces was quantified with a staining solution by adding 200 μl of 1% Crystal Violet (Merck Millipore KGaA, Germany) in methanol to each well in a clean 96-well plate and placing the biofilm-containing peg-lid on it. After 3 minutes the wells were emptied and the wells and pegs were rinsed 3 times with tap water. Finally the peg-lid was placed in a clean 96-well plate, the attached Crystal Violet was dissolved into ethanol and the absorbance at 595 nm was measured. All parts per million (ppm) amounts given in Example 1 are as active ingredients. The Impact values are calculated as biofilm reduction percentages based on a comparison with no added chemicals. A positive value indicates a reduction in amount of biofilm whereas a negative value indicates an increase in the amount of biofilm. […] Biofilm was stained and quantified by absorbance measurement. Dosages are given as active ingredients.

Compound	Impact (biofilm reduction percentage vs no added chemicals) (Compound A 0.15 ppm alone, 24 h, negative = increase) [%]	Impact (biofilm reduction percentage vs no added chemicals) (Compound A 0.30 ppm alone, 24 h) [%]	Impact (biofilm reduction percentage vs no added chemicals) (Compound A 0.45 ppm alone, 24 h) [%]	Impact (biofilm reduction percentage vs no added chemicals) (Sodium hypochlorite 2 ppm alone, authentic cooling water+SCW+P. taiwanensis, 24 h on pre-grown biofilm, negative = increase) [%]	Impact (biofilm reduction percentage vs no added chemicals) (Sodium hypochlorite 4 ppm alone, 24 h, negative = increase) [%]	Impact (biofilm reduction percentage vs no added chemicals) (Sodium hypochlorite 8 ppm alone, 24 h, negative = increase) [%]	Impact (biofilm reduction percentage vs no added chemicals) (Sodium hypochlorite 12 ppm alone, 24 h, negative = increase) [%]	Impact (biofilm reduction percentage vs no added chemicals) (Sodium hypochlorite 16 ppm alone, 24 h) [%]	Dosage required to reach noticeable biofilm reduction efficacy (Sodium hypochlorite on its own, as active compound) [ppm]
Cc1ccc(S(=O)(=O)C=CC#N)cc1 [Compound A, 3-[(4-methylphenyl)sulphonyl]-2-propenenitrile]	−19	2	8	–	–	–	–	–	–
OCl [Sodium hypochlorite]	–	–	–	−30	−27	−25	−10	6	16
